Assay results taken from US4051315A, “6"-Deoxykanamycin B and 6"-deoxytobramycin” (priority 1975, dated 1977).
Converted amounts (≈) assume the structure as drawn. Where two headings read alike, the source gives them in different places.

How the values were obtained:
Format in all cases: cell-based
[1] = tested on: E. coli JR66/W677 NPT-2, GAS; assay: two-fold agar dilution MIC, Ec-53
E. coli NR79/W677 KAT = assay: two-fold agar dilution MIC, Ec-9; settings: Escherichia coli, NR79/W677KAT
S. marcescens A20019 = assay: two-fold agar dilution MIC, Sm-1; settings: Serratia marcescens
[2] = tested on: P. aeruginosa A20896 GAT-3; assay: two-fold agar dilution MIC, Pa-24
E. coli P01495 CP.TC-R = assay: two-fold agar dilution MIC, Ec-2; settings: Escherichia coli, P01495CP.TCR
E. coli A20107 NPT-2 = assay: two-fold agar dilution MIC, Ec-49; settings: Escherichia coli
E. cloacae A21006 NPT-2 = assay: two-fold agar dilution MIC, E1-12
[3] = tested on: S. aureus D137 PC, TC, EM-R; assay: two-fold agar dilution MIC, Sa-9
[4] = tested on: S. marcescens A21247 NPT-1, GAS; assay: two-fold agar dilution MIC, Sm-16; settings: Serratia marcescens
E. coli A20732 GAS = assay: two-fold agar dilution MIC, Ec-72; settings: Escherichia coli, A20732GAS
P. aeruginosa GN-4925 = assay: two-fold agar dilution MIC, Pa-45; settings: Pseudomonas aeruginosa
B. subtilis PCT-219 = assay: two-fold agar dilution MIC, Bs-1; settings: Bacillus subtilis
E. coli NIHJ = assay: two-fold agar dilution MIC, Ec-1
E. coli R5 KAT = assay: two-fold agar dilution MIC, Ec-55
P. mirabilis A9554 CL-R = assay: two-fold agar dilution MIC, Pm-1
[5] = tested on: P. aeruginosa A20601 GAT-1; assay: two-fold agar dilution MIC, Pa-21; settings: Pseudomonas aeruginosa
[6] = tested on: K. pneumoniae 22-3038 NPT-2, GAS; assay: two-fold agar dilution MIC, Kp-8
[7] = tested on: Pseudomonas sp. A20621 KAT, NPT-1,2; assay: two-fold agar dilution MIC, Px-10
S. aureus Smith = assay: two-fold agar dilution MIC, Sa-2; settings: Staphylococcus aureus
P. stuartii A20894 GAT-2 = assay: two-fold agar dilution MIC, Ps-2
S. aureus D133 SH, Sth-R = assay: two-fold agar dilution MIC, Sa-4
P. vulgaris A9436 = assay: two-fold agar dilution MIC, Pv-1
K. pneumoniae D11 = assay: two-fold agar dilution MIC, Kp-1; settings: Klebsiella pneumoniae
E. coli JR35/C600 NPT-1 = assay: two-fold agar dilution MIC, Ec-10
E. coli JR88 CAT-1 = assay: two-fold agar dilution MIC, Ec-62
P. aeruginosa GN-315 KAT = assay: two-fold agar dilution MIC, Pa-27
P. aeruginosa A9930 = assay: two-fold agar dilution MIC, Pa-3; settings: Pseudomonas aeruginosa
[8] = tested on: P. aeruginosa #130 GAT-1, NPT; assay: two-fold agar dilution MIC, Pa-16
E. cloacae A20364 NPT-1 = assay: two-fold agar dilution MIC, E1-2; settings: Enterobacter cloacae
[9] = tested on: P. aeruginosa A20653 NPT-1,2; assay: two-fold agar dilution MIC, Pa-12; settings: Pseudomonas aeruginosa
S. aureus A20239 NPT-1,2 = assay: two-fold agar dilution MIC, Sa-10; settings: Run 2; Sa-10
E. coli ML1630 NPT-1 = assay: two-fold agar dilution MIC, Ec-5; settings: Escherichia coli
[10] = Staphylococcus aureus, Run 1, read-out: MIC

## NCC1OC(OC2C(N)CC(N)C(OC3OC(CO)C(O)C(N)C3O)C2O)C(N)CC1O (stereo not drawn) [tobramycin, 3'-deoxykanamycin B]
[1]; Escherichia coli
  MIC: 25 µg/mL (≈ 53.5 µM)
[1]; Run 2, Ec-53
  MIC: 25 µg/mL (≈ 53.5 µM)
E. coli NR79/W677 KAT; Run 1
  MIC: 1.6 µg/mL (≈ 3.42 µM)
E. coli NR79/W677 KAT; Run 2
  MIC: 0.8 µg/mL (≈ 1.71 µM)
S. marcescens A20019; A20019, Run 1, read-out: MIC
  MIC: 6.3 µg/mL (≈ 13.5 µM)
S. marcescens A20019; A20019, Run 2
  MIC: 12.5 µg/mL (≈ 26.7 µM)
[2]; Pseudomonas aeruginosa, A20896GAT3, Run 1, read-out: MIC
  MIC: > 100 µg/mL
[2]; Run 2
  MIC: > 100 µg/mL
E. coli P01495 CP.TC-R; Run 1
  MIC: 1.6 µg/mL (≈ 3.42 µM)
E. coli P01495 CP.TC-R; Run 2
  MIC: 0.8 µg/mL (≈ 1.71 µM)
E. coli A20107 NPT-2; A20107NPT2, Run 1
  MIC: 1.6 µg/mL (≈ 3.42 µM)
E. coli A20107 NPT-2; A20107NPT2, Run 2
  MIC: 1.6 µg/mL (≈ 3.42 µM)
E. cloacae A21006 NPT-2; Enterobacter cloacae, A21006NPT2
  MIC: 1.6 µg/mL (≈ 3.42 µM)
E. cloacae A21006 NPT-2; Run 2, E1-12
  MIC: 1.6 µg/mL (≈ 3.42 µM)
[3]; Run 2
  MIC: 3.1 µg/mL (≈ 6.63 µM)
[3]; [10]
  MIC: 3.1 µg/mL (≈ 6.63 µM)
[4]; Run 1
  MIC: 50 µg/mL (≈ 107 µM)
[4]; Run 2
  MIC: 50 µg/mL (≈ 107 µM)
E. coli A20732 GAS; Run 1
  MIC: 50 µg/mL (≈ 107 µM)
E. coli A20732 GAS; Run 2
  MIC: 1.6 µg/mL (≈ 3.42 µM)
P. aeruginosa GN-4925; GN4925, Run 1
  MIC: 100 µg/mL (≈ 214 µM)
P. aeruginosa GN-4925; GN4925, Run 2
  MIC: 50 µg/mL (≈ 107 µM)
B. subtilis PCT-219; PCT219, Run 1
  MIC: 0.2 µg/mL (≈ 0.428 µM)
B. subtilis PCT-219; PCT219, Run 2
  MIC: < 0.05 µg/mL
E. coli NIHJ; Escherichia coli, Run 1, read-out: MIC
  MIC: 0.8 µg/mL (≈ 1.71 µM)
E. coli NIHJ; Run 2
  MIC: 0.8 µg/mL (≈ 1.71 µM)
E. coli R5 KAT; Escherichia coli, R5KAT
  MIC: 0.8 µg/mL (≈ 1.71 µM)
E. coli R5 KAT; Run 2, Ec-55
  MIC: 0.8 µg/mL (≈ 1.71 µM)
P. mirabilis A9554 CL-R; Proteus mirabilis, A9554CLR, Run 1, read-out: MIC
  MIC: 0.8 µg/mL (≈ 1.71 µM)
P. mirabilis A9554 CL-R; Run 2
  MIC: 0.8 µg/mL (≈ 1.71 µM)
[5]; A20601GAT1, Run 1
  MIC: 3.1 µg/mL (≈ 6.63 µM)
[5]; A20601GAT1, Run 2
  MIC: 1.6 µg/mL (≈ 3.42 µM)
[6]; Klebsiella pneumoniae, Run 1, read-out: MIC
  MIC: 25 µg/mL (≈ 53.5 µM)
[6]; Run 2
  MIC: 25 µg/mL (≈ 53.5 µM)
[7]; Pseudomonas, Run 1, read-out: MIC
  MIC: 25 µg/mL (≈ 53.5 µM)
[7]; Run 2
  MIC: 25 µg/mL (≈ 53.5 µM)
S. aureus Smith; Run 1
  MIC: 0.4 µg/mL (≈ 0.856 µM)
S. aureus Smith; Run 2
  MIC: 0.2 µg/mL (≈ 0.428 µM)
P. stuartii A20894 GAT-2; Providencia stuartii, A20894GAT2
  MIC: 12.5 µg/mL (≈ 26.7 µM)
P. stuartii A20894 GAT-2; Run 2, Ps-2
  MIC: 12.5 µg/mL (≈ 26.7 µM)
S. aureus D133 SH, Sth-R; Run 2
  MIC: 1.6 µg/mL (≈ 3.42 µM)
S. aureus D133 SH, Sth-R; [10]
  MIC: 1.6 µg/mL (≈ 3.42 µM)
P. vulgaris A9436; Proteus vulgaris, A9436, Run 1, read-out: MIC
  MIC: 0.4 µg/mL (≈ 0.856 µM)
P. vulgaris A9436; Run 2
  MIC: 0.4 µg/mL (≈ 0.856 µM)
K. pneumoniae D11; D11, Run 1
  MIC: 0.4 µg/mL (≈ 0.856 µM)
K. pneumoniae D11; D11, Run 2
  MIC: 0.8 µg/mL (≈ 1.71 µM)
E. coli JR35/C600 NPT-1; Escherichia coli, JR35/C600NPT1
  MIC: 1.6 µg/mL (≈ 3.42 µM)
E. coli JR35/C600 NPT-1; Run 2, Ec-10
  MIC: 1.6 µg/mL (≈ 3.42 µM)
E. coli JR88 CAT-1; Escherichia coli, JR88CAT1
  MIC: 1.6 µg/mL (≈ 3.42 µM)
E. coli JR88 CAT-1; Run 2, Ec-62
  MIC: 1.6 µg/mL (≈ 3.42 µM)
P. aeruginosa GN-315 KAT; Pseudomonas aeruginosa, GN315, Run 1, read-out: MIC
  MIC: > 100 µg/mL
P. aeruginosa GN-315 KAT; Run 2
  MIC: > 100 µg/mL
P. aeruginosa A9930; A9930, Run 1
  MIC: 0.4 µg/mL (≈ 0.856 µM)
P. aeruginosa A9930; A9930, Run 2
  MIC: 0.8 µg/mL (≈ 1.71 µM)
[8]; Pseudomonas aeruginosa, Run 1, read-out: MIC
  MIC: 3.1 µg/mL (≈ 6.63 µM)
[8]; Run 2
  MIC: 3.1 µg/mL (≈ 6.63 µM)
E. cloacae A20364 NPT-1; A20364NPT1, Run 1
  MIC: 50 µg/mL (≈ 107 µM)
E. cloacae A20364 NPT-1; A20364NPT1, Run 2
  MIC: 1.6 µg/mL (≈ 3.42 µM)
[9]; Run 1
  MIC: 6.3 µg/mL (≈ 13.5 µM)
[9]; Run 2
  MIC: 3.1 µg/mL (≈ 6.63 µM)
S. aureus A20239 NPT-1,2
  MIC: 1.6 µg/mL (≈ 3.42 µM)
E. coli ML1630 NPT-1; ML1630NPT1, Run 1
  MIC: 1.6 µg/mL (≈ 3.42 µM)
E. coli ML1630 NPT-1; ML1630NPT1, Run 2
  MIC: 0.8 µg/mL (≈ 1.71 µM)
